Results on two compounds are retold here after paper PMC5750217 (Nature Communications, 2018).

For test [1], the target named is T1, A1-T458S (mutant ASCT1) (Homo sapiens, UniProt P43007, T458S).
T1 construct: expressed in transfected cells; host or cells: Xenopus laevis oocytes (cRNA injection)
T1 sequence (P43007 1-532 T458S): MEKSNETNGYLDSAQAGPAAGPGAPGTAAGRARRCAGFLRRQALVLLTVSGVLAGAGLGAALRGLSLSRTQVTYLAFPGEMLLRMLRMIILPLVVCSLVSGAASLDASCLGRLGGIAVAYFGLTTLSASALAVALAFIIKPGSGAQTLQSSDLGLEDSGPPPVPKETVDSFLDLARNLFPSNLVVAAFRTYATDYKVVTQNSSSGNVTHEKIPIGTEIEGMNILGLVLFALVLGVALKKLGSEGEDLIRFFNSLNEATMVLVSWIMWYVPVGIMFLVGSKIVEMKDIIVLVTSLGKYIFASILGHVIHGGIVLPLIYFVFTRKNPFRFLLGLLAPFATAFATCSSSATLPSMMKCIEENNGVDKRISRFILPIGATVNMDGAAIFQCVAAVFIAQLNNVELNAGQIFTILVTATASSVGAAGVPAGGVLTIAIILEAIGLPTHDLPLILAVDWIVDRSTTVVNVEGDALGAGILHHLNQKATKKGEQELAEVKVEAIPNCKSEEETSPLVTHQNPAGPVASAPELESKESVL
Kind of test: Two electrode voltage clamp, substrate-activated anion current in oocytes expressing A1-T458S. Type of test: cell-based. As to conditions: NO3−-containing buffer, current at +60 mV, dash = substrate did not generate currents. The procedure: All chemicals were obtained from Sigma unless otherwise stated. Stage V oocytes were harvested from female Xenopus laevis (frogs) which were obtained from Nasco (Fort Alkinson, USA). Frogs were anaesthetised with 6.5 mM tricaine neutralised with 7.14 mM sodium bicarbonate. After making an incision in the abdomen of the frog, ovarian sacs were removed and stored in OR-2 buffer (82.5 mM NaCl, 2 mM KCl, 1 mM MgCl2, 5 mM hemisodium HEPES, pH 7.5). This surgical procedure follows a protocol (#2016/970) approved by the University of Sydney Animal Ethics Committee under the Australian Code of Practice for the Care and Use of Animals for Scientific Purposes. […]
After 2–4 days of microinjection, current recordings were made using the two electrode voltage clamp technique with a Geneclamp 500 amplifier (Axon Instruments, Foster City, CA) interfaced with a MacLab 2e chart recorder (ADI Instruments, Sydney, Australia) using the chart software, and a Digidata 1322A (Axon Instruments) controlled by an IBM-compatible computer using the pClamp software (version 10, Molecular Devices, Union City, CA). […] Current–voltage relationships were calculated by subtracting steady state current measurements in the absence of substrate from corresponding current measurements in the presence of substrate. […]
(Two-electrode voltage clamp is typically applied to oocytes expressing channels or transporters.)

For test [2], the target named is T2, A1-T458S/T459C (mutant ASCT1) (Homo sapiens, UniProt P43007, T458S/T459C).
T2 construct: expressed in transfected cells; host or cells: Xenopus laevis oocytes (cRNA injection)
T2 sequence (P43007 1-532 T458S/T459C): T1 sequence (P43007 1-532 T458S) with T459C
Kind of test: Radiolabelled uptake in oocytes expressing A1-T458S/T459C. To be noted: 10 µM L-[3H]substrate, 10 min, room temperature. It is filed as cell-based. The method, then:
Uptake of L-[^3H]amino acids (PerkinElmer Life Sciences) was measured in oocytes expressing wild-type and mutant ASCT1, and uninjected oocytes. Five oocytes were incubated in Cl^−-containing buffer with 10 µM L-[^3H]amino acids at room temperature. After 10 min, uptake was terminated by three rapid washes in ice-cold Cl^−-containing buffer followed by lysis in 50 mM NaOH and 1% SDS. L-[^3H]amino acids were measured by scintillation counting using a Trilux beta counter (PerkinElmer Life Sciences).

Residue numbers refer to the chain shown, from its start.

For `N[C@@H](CO)C(=O)O` [L-serine], the EC50 in test [1] amounted to 106 ± 4 µM. Also, the “Radiolabelled substrate uptake into oocytes (in words)” value in test [2] is listed as “robust accumulation”.

For the compound `NC(=O)CC[C@H](N)C(=O)O` [L-glutamine], in test [1], the “EC50 of substrate-activated current” value is “does not respond”. In addition, in test [2], the “Radiolabelled substrate uptake into oocytes (in words)” value is “robust accumulation”.

What is called EC50 is the concentration needed to bring the measured effect to its halfway point.
